Like-named read-outs stand apart in the source and are kept apart here.
Columns and labels:
CDK6-CYCLIND3 = target: T1, CDK6-CYCLIND3 (Homo sapiens, UniProt Q00534); assay: Microfluidic LabChip kinase inhibition assay, CDK6-CyclinD3; assay type: biochemical; details: 300 μM ATP
T1 construct: purchased Carna

CDK4-CYCLIND1 = CDK4-CYCLIND1 (Homo sapiens, UniProt P11802); assay: Microfluidic LabChip kinase inhibition assay, CDK4-CyclinD1; details: 200 μM ATP
[1] = Table 3a, read-out: CDK6 CyclinD3 IC50
[2] = Table 3b, read-out: CDK6 CyclinD3 IC50
[3] = CDK4 CyclinD1 IC50 (μM), Table 3a, second value in parentheses on the next line
[4] = CDK4 CyclinD1 IC50 (μM), Table 3b, second value in parentheses on the next line
[5] = Table 2, 2 nM enzyme, read-out: CDK6 IC50
[6] = CDK4 IC50 (μM), Table 2, 1 nM enzyme

T1 sequence (Q00534 whole entry): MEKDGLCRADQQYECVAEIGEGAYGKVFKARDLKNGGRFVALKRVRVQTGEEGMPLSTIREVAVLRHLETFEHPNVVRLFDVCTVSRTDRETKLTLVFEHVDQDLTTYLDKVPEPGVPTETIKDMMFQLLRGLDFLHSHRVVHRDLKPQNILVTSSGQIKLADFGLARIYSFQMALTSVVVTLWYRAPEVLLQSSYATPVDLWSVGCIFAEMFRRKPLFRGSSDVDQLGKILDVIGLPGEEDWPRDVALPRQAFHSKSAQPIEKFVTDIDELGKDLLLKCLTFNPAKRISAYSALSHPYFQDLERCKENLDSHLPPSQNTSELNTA
T1 sequence (P30281 whole entry partner): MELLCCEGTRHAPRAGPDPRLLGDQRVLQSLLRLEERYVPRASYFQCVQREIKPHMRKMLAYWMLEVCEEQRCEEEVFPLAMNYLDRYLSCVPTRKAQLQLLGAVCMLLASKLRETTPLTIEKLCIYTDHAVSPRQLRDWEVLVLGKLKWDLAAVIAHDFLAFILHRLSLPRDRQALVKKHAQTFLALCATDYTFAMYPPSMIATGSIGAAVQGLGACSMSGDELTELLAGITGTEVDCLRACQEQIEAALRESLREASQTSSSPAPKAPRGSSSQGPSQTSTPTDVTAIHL
Chain of CDK4-CYCLIND1 (P11802 whole entry): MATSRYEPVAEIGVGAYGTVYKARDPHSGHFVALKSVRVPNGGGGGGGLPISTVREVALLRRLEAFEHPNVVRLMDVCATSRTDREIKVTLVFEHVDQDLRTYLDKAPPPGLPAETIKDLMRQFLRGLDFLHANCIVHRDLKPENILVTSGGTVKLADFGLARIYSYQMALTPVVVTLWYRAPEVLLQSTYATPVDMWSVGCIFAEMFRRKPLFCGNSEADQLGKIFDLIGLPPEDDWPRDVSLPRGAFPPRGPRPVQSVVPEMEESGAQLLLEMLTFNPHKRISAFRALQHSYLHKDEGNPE
Chain of CDK4-CYCLIND1 (P24385 whole entry partner): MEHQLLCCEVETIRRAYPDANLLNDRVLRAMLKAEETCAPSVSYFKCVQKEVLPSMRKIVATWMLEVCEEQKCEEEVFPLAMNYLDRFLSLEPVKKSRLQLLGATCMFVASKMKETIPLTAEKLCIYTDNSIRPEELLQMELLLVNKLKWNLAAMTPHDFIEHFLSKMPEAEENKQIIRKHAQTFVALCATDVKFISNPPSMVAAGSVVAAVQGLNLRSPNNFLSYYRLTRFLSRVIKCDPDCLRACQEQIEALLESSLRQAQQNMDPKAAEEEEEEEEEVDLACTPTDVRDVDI

Row | IC50 (CDK6-CYCLIND3; [5]) | IC50 (CDK4-CYCLIND1; [6]) | Structure (SMILES) | IC50 (CDK6-CYCLIND3; [1]) | IC50 (CDK6-CYCLIND3; [2]) | IC50 (CDK4-CYCLIND1; [3]) | IC50 (CDK4-CYCLIND1; [4])
1 | – | – | O=C1NCCC12Cc1cnc(Nc3ccc(N4CCNCC4)c(F)c3)nc1N2C1CCCC1 (single isomer, unassigned) [Compound C203, 7′-cyclopentyl-2′-((3-fluoro-4-(piperazin-1-yl)phenyl)amino)-5′,7′-dihydrospiro[pyrrolidine-3,6′-pyrrolo[2,3-d]pyrimidin]-2-one] | 0.104 µM | 0.104 µM | 0.0245 µM | 0.0245 µM
2 | – | – | O=C1NCCC12Cc1cnc(Nc3ccc(N4CCNCC4)c(F)c3)nc1N2C1CCCC1 (single isomer, unassigned) [Compound C204, 7′-cyclopentyl-2′-((3-fluoro-4-(piperazin-1-yl)phenyl)amino)-5′,7′-dihydrospiro[pyrrolidine-3,6′-pyrrolo[2,3-d]pyrimidin]-2-one] | 11.8 µM | 11.8 µM | 2.03 µM | 2.03 µM
3 | – | – | CN1CCN(c2ccc(Nc3ncc4c(n3)N(C3CCCC3)C3(CCNC3=O)C4)cc2F)CC1 (single isomer, unassigned) [Compound C205, 7′-cyclopentyl-2′-((3-fluoro-4-(4-methylpiperazin-1-yl)phenyl)amino)-5′,7′-dihydrospiro[pyrrolidine-3,6′-pyrrolo[2,3-d]pyrimidin]-2-one] | 0.179 µM | 0.179 µM | 0.0413 µM | 0.0413 µM
4 | – | – | CN1CCN(c2ccc(Nc3ncc4c(n3)N(C3CCCC3)C3(CCNC3=O)C4)cc2F)CC1 (single isomer, unassigned) [Compound C206, 7′-cyclopentyl-2′-((3-fluoro-4-(4-methylpiperazin-1-yl)phenyl)amino)-5′,7′-dihydrospiro[pyrrolidine-3,6′-pyrrolo[2,3-d]pyrimidin]-2-one] | 15.8 µM | 15.8 µM | 5.14 µM | 5.14 µM
5 | 19.1 µM | 4.74 µM | CN1CCN(c2ccc(Nc3ncc4c(n3)N(C3CCCC3)C3(CCN(C)C3=O)C4)cc2)CC1 (stereo not shown) [Compound C1, 7′-cyclopentyl-1-methyl-2′-((4-(4-methylpiperazin-1-yl)phenyl)amino)-5′,7′-dihydrospiro[pyrrolidine-3,6′-pyrrolo[2,3-d]pyrimidin]-2-one] | – | – | – | –
6 | 23.8 µM | 5.16 µM | CN1CCC2(Cc3cnc(Nc4ccc(N5CCNCC5)cc4)nc3N2C2CCCC2)C1=O (stereo not shown) [Compound C2, 7′-cyclopentyl-1-methyl-2′-((4-(piperazin-1-yl)phenyl)amino)-5′,7′-dihydrospiro[pyrrolidine-3,6′-pyrrolo[2,3-d]pyrimidin]-2-one] | – | – | – | –
7 | > 30 µM | > 30 µM | CC(C)N1CCN(c2ccc(Nc3ncc4c(n3)N(C3CCCC3)C3(CCN(C)C3=O)C4)nc2)CC1 (stereo not shown) [Compound C3, 7′-cyclopentyl-2′-((5-(4-isopropylpiperazin-1-yl)pyridin-2-yl)amino)-1-methyl-5′,7′-dihydrospiro[pyrrolidine-3,6′-pyrrolo[2,3-d]pyrimidin]-2-one] | – | – | – | –
8 | > 30 µM | > 30 µM | CN(C)CCOc1ccc(Nc2ncc3c(n2)N(C2CCCC2)C2(CCN(C)C2=O)C3)nc1 (stereo not shown) [Compound C4, 7′-cyclopentyl-2′-((5-(2-(dimethylamino)ethoxy)pyridin-2-yl)amino)-1-methyl-5′,7′-dihydrospiro[pyrrolidine-3,6′-pyrrolo[2,3-d]pyrimidin]-2-one] | – | – | – | –
9 | > 30 µM | > 30 µM | CN1CCC2(Cc3cnc(Nc4ccc(OCCN5CCCC5)cn4)nc3N2C2CCCC2)C1=O (stereo not shown) [Compound C5, 7′-cyclopentyl-1-methyl-2′-((5-(2-(pyrrolidin-1-yl)ethoxy)pyridin-2-yl)amino)-5′,7′-dihydrospiro[pyrrolidine-3,6′-pyrrolo[2,3-d]pyrimidin]-2-one] | – | – | – | –
10 | > 30 µM | > 30 µM | CN1CCC2(Cc3cnc(Nc4ccc(OCCN5CCCCC5)cn4)nc3N2C2CCCC2)C1=O (stereo not shown) [Compound C6, 7′-cyclopentyl 1-methyl-2′-((5-(2-(piperidin-1-yl)ethoxy)pyridin-2-yl)amino)-5′,7′-dihydrospiro[pyrrolidine-3,6′-pyrrolo[2,3-d]pyrimidin]-2-one] | – | – | – | –
11 | > 30 µM | > 30 µM | CN1CCN(c2ccc(Nc3ncc4c(n3)N(C3CCCC3)C3(CCCN(C)C3=O)C4)cc2)CC1 (stereo not shown) [Compound C7, 7′-cyclopentyl-1-methyl-2′-((4-(4-methylpiperazin-1-yl)phenyl)amino)-5′,7′-dihydrospiro[piperidine-3,6′-pyrrolo[2,3-d]pyrimidin]-2-one] | – | – | – | –
12 | > 30 µM | > 30 µM | CN1CCCC2(Cc3cnc(Nc4ccc(N5CCNCC5)cc4)nc3N2C2CCCC2)C1=O (stereo not shown) [Compound C8, 7′-cyclopentyl-1-methyl-2′-((4-(piperazin-1-yl)phenyl)amino)-5′,7′-dihydrospiro[piperidine-3,6′-pyrrolo[2,3-d]pyrimidin]-2-one] | – | – | – | –
13 | > 30 µM | > 30 µM | CC(C)N1CCN(c2ccc(Nc3ncc4c(n3)N(C3CCCC3)C3(CCCN(C)C3=O)C4)nc2)CC1 (stereo not shown) [Compound C9, 7′-cyclopentyl-2′-((5-(4-isopropylpiperazin-1-yl)pyridin-2-yl)amino)-1-methyl-5′,7′-dihydrospiro[piperidine-3,6′-pyrrolo[2,3-d]pyrimidin]-2-one] | – | – | – | –
14 | > 30 µM | > 30 µM | CN1CCCC2(Cc3cnc(Nc4ccc(OCCN5CCCC5)cn4)nc3N2C2CCCC2)C1=O (stereo not shown) [Compound C10, 7′-cyclopentyl-1-methyl-2′-((5-(2-(pyrrolidin-1-yl)ethoxy)pyridin-2-yl)amino)-5′,7′-dihydrospiro[piperidine-3,6′-pyrrolo[2,3-d]pyrimidin]-2-one] | – | – | – | –
15 | > 30 µM | > 30 µM | CN1CCCC2(Cc3cnc(Nc4ccc(OCCN5CCCCC5)cn4)nc3N2C2CCCC2)C1=O (stereo not shown) [Compound C11, 7′-cyclopentyl-1-methyl-2′-((5-(2-(piperidin-1-yl)ethoxy)pyridin-2-yl)amino)-5′,7′-dihydrospiro[piperidine-3,6′-pyrrolo[2,3-d]pyrimidin]-2-one] | – | – | – | –
16 | > 30 µM | 1.96 µM | COc1ccc(CN2CCC3(Cc4cnc(Nc5ccc(N6CCN(C)CC6)cc5)nc4N3C3CCCC3)C2=O)cc1 (stereo not shown) [Compound C12, 7′-cyclopentyl-1-(4-methoxybenzyl)-2′-((4-(4-methylpiperazin-1-yl)phenyl)amino)-5′,7′-dihydrospiro[pyrrolidine-3,6′-pyrrolo[2,3-d]pyrimidin]-2-one] | – | – | – | –
17 | > 30 µM | > 30 µM | CN1CCN(c2cnc(Nc3ncc4c(n3)N(C3CCCC3)C3(CCN(C)C3=O)C4)cc2C(F)(F)F)CC1 (stereo not shown) [Compound C13, 7′-cyclopentyl-1-methyl-2′-((5-(4-methylpiperazin-1-yl)-4-(trifluoromethyl)pyridin-2-yl)amino)-5′,7′-dihydrospiro[pyrrolidine-3,6′-pyrrolo[2,3-d]pyrimidin]-2-one] | – | – | – | –
18 | > 30 µM | > 30 µM | CN1CCCC2(Cc3cnc(Nc4cc(C(F)(F)F)c(N5CCNCC5)cn4)nc3N2C2CCCC2)C1=O (stereo not shown) [Compound C14, 7′-cyclopentyl-1-methyl-2′-((5-(piperazin-1-yl)-4-(trifluoromethyl)pyridin-2-yl)amino)-5′,7′-dihydrospiro[piperidine-3,6′-pyrrolo[2,3-d]pyrimidin]-2-one] | – | – | – | –
19 | > 30 µM | > 30 µM | CN1CCC2(Cc3cnc(Nc4cc(C(F)(F)F)c(N5CCNCC5)cn4)nc3N2C2CCCC2)C1=O (stereo not shown) [Compound C15, 7′-cyclopentyl-1-methyl-2′-((5-(piperazin-1-yl)-4-(trifluoromethyl)pyridin-2-yl)amino)-5′,7′-dihydrospiro[pyrrolidine-3,6′-pyrrolo[2,3-d]pyrimidin]-2-one] | – | – | – | –
20 | > 30 µM | 13.1 µM | COc1ccc(CN2CCC3(Cc4cnc(Nc5cc(C(F)(F)F)c(N6CCNCC6)cn5)nc4N3C3CCCC3)C2=O)cc1 (stereo not shown) [Compound C16, 7′-cyclopentyl-1-(4-methoxybenzyl)-2′-((5-(piperazin-1-yl)-4-(trifluoromethyl)pyridin-2-yl)amino)-5′,7′-dihydrospiro[pyrrolidine-3,6′-pyrrolo[2,3-d]pyrimidin]-2-one] | – | – | – | –
21 | > 30 µM | 18.8 µM | O=C1NCCC12Cc1cnc(Nc3cc(C(F)(F)F)c(N4CCNCC4)cn3)nc1N2C1CCCC1 (stereo not shown) [Compound C17, 7′-cyclopentyl-2′-((5-(piperazin-1-yl)-4-(trifluoromethyl)pyridin-2-yl)amino)-5′,7′-dihydrospiro[pyrrolidine-3,6′-pyrrolo[2,3-d]pyrimidin]-2-one] | – | – | – | –
22 | > 30 µM | > 30 µM | CN1CCN(c2cnc(Nc3ncc4c(n3)N(C3CCCC3)C3(CCNC3=O)C4)cc2C(F)(F)F)CC1 (stereo not shown) [Compound C18, 7′-cyclopentyl-2′-((5-(4-methylpiperazin-1-yl)-4-(trifluoromethyl)pyridin-2-yl)amino)-5′,7′-dihydrospiro[pyrrolidine-3,6′-pyrrolo[2,3-d]pyrimidin]-2-one] | – | – | – | –
23 | – | 57.6 µM | CN1CCN(c2ccc(Nc3ncc4c(n3)N(C3CCCC3)CC43CCNC3=O)nc2)CC1 (stereo not shown) [Compound C98, 7′-cyclopentyl-2′-((5-(4-methylpiperazin-1-yl)pyridin-2-yl)amino)-6′,7′-dihydrospiro[pyrrolidine-3,5′-pyrrolo[2,3-d]pyrimidin]-2-one] | – | – | – | –
24 | – | 59.4 µM | O=C1NCCC12C(=O)N(C1CCCC1)c1nc(Nc3ccc(N4CCNCC4)cn3)ncc12 (stereo not shown) [Compound C99, 7′-cyclopentyl-2′-((5-(piperazin-1-yl)pyridin-2-yl)amino)spiro[pyrrolidine-3,5′-pyrrolo[2,3-d]pyrimidine]-2,6′(7′H)-dione] | – | – | – | –
25 | – | 51 µM | CC(C)N1CCN(c2ccc(Nc3ncc4c(n3)N(C3CCCC3)C(=O)C43CCNC3=O)cc2F)CC1 (stereo not shown) [Compound C104, 7′-cyclopentyl-2′-((3-fluoro-4-(4-isopropylpiperazin-1-yl)phenyl)amino)spiro[pyrrolidine-3,5′-pyrrolo[2,3-d]pyrimidine]-2,6′(7′H)-dione] | – | – | – | –

From patent US20230065740A1, “CYCLIN-DEPENDENT KINASE INHIBITORS” (SPV THERAPEUTICS INC., priority 2018, published 2023)
